# Data as given in article PMC10053710, “Influence of Lipidation Pattern of the KR12 Fragment of Peptide LL-37 on Its Antibacterial and Hemolytic Activities” (International Journal of Molecular Sciences, 2023).
# Where a SMILES comes first, the peptide text is derived from it. The star is where a group is joined. Octanoyl = CCCCCCCC(=O)*
# What was measured:
# S. aureus ATCC 25923 = format: cell-based, Staphylococcus aureus; conditions: ATCC 25923, 18 h
# Experimental: (§1) Tests of the antibacterial activity were carried out as we just described. Briefly, for assays, the following strains of ESKAPE bacteria were chosen: Acinetobacter baumannii ATCC BAA-1605, Enterococcus faecium ATCC 700221, Klebsiella aerogenes ATCC 13048 (formerly Enterobacter aerogenes), Klebsiella pneumoniae ATCC 700603, and Pseudomonas aeruginosa ATCC 9027. Moreover, the reference strains of Staphylococcus aureus were used: S. aureus ATCC 25923, S. aureus ATCC 6538, S. aureus ATCC 33591 (MRSA), S. aureus ATCC 9144, and S. aureus ATCC 12598. Before experiments, all the strains were stored at −80 °C in Roti®-Store cryo vials (Carl Roth GmbH, Karlsruhe, Germany). To evaluate the activity of the compounds, bacteria were transferred into fresh Mueller–Hinton medium (Becton Dickinson, Warszawa, Poland) and incubated for 24 h at 37 °C. In the next step, bacterial inoculums were seeded on Mueller–Hinton agar plates (BioMaxima SA, Lublin, Poland) and incubated again for 24 h. The MIC values were determined using the broth microdilution method according to the Clinical and Laboratory Standards Institute Protocol. The initial inoculums of bacteria (0.5 × 10^5 colony forming units (CFU)/mL) prepared in Mueller–Hinton broth were exposed to the ranging concentrations of peptides (1–512 µg/mL). The experiments were conducted on 96-well microtiter plates, with a final volume of 100 µL. The inoculum densities were checked spectrophotometrically (Multiskan™ GO Microplate Spectrophotometer, Thermo Scientific, Waltham, MA, USA) at 600 nm. The results were read after incubation for 18 h at 37 °C. The MIC values were the lowest concentration at which a visible growth of microorganisms was inhibited. All experiments were conducted in triplicate. Moreover, positive (growth) and negative (sterility) controls were included.
# S. aureus ATCC 6538 = format: cell-based, Staphylococcus aureus; conditions: ATCC 6538, 18 h
# Experimental: as §1
# [1] = system: S. aureus ATCC 33591 (MRSA); format: cell-based, Staphylococcus aureus; conditions: ATCC 33591, 18 h
# Experimental: as §1
# S. aureus ATCC 9144 = format: cell-based, Staphylococcus aureus; conditions: ATCC 9144, 18 h
# Experimental: as §1
# S. aureus ATCC 12598 = format: cell-based, Staphylococcus aureus; conditions: ATCC 12598, 18 h
# Experimental: as §1
# [2] = 18 h
# [3] = system: Pseudomonas aeruginosa ATCC 9027; format: cell-based; conditions: ATCC 9027, 18 h
# Experimental: as §1
# [4] = system: Klebsiella pneumoniae ATCC 700603; format: cell-based; conditions: ATCC 700603, 18 h
# Experimental: as §1
# [5] = system: Enterococcus faecium ATCC 700221; format: cell-based; conditions: ATCC 700221, 18 h
# Experimental: as §1
# [6] = system: Klebsiella aerogenes ATCC 13048; format: cell-based; conditions: ATCC 13048, 18 h
# Experimental: as §1
Structure (SMILES),MIC S. aureus 25923 (S. aureus ATCC 25923),MIC S. aureus 6538 (S. aureus ATCC 6538),MIC S. aureus 33591 [1],MIC S. aureus 9144 (S. aureus ATCC 9144),MIC S. aureus 12598 (S. aureus ATCC 12598),MIC A. baumannii [2],MIC P. aeruginosa [3],MIC K. pneumoniae [4],MIC E. faecium [5],MIC K. aerogenes [6]
"CCCCCCCC(=O)NCCCC[C@H](N)C(=O)N[C@@H](CCCNC(=N)N)C(=O)N[C@H](C(=O)N[C@H](C(=O)N[C@@H](CCC(N)=O)C(=O)N[C@@H](CCCNC(=N)N)C(=O)N[C@H](C(=O)N[C@@H](CCCCN)C(=O)N[C@@H](CC(=O)O)C(=O)N[C@@H](Cc1ccccc1)C(=O)N[C@@H](CC(C)C)C(=O)N[C@@H](CCCNC(=N)N)C(N)=O)[C@@H](C)CC)C(C)C)[C@@H](C)CC [III, C8^ε-KR12-NH2] (H-K(Octanoyl)RIVQRIKDFLR-NH2)",32 µg/mL,8 µg/mL,64 µg/mL,32 µg/mL,64 µg/mL,32 µg/mL,64 µg/mL,32 µg/mL,4 µg/mL,64 µg/mL
"CCCCCCCC(=O)NCCCC[C@H](NC(=O)CCCCCCC)C(=O)N[C@@H](CCCNC(=N)N)C(=O)N[C@H](C(=O)N[C@H](C(=O)N[C@@H](CCC(N)=O)C(=O)N[C@@H](CCCNC(=N)N)C(=O)N[C@H](C(=O)N[C@@H](CCCCN)C(=O)N[C@@H](CC(=O)O)C(=O)N[C@@H](Cc1ccccc1)C(=O)N[C@@H](CC(C)C)C(=O)N[C@@H](CCCNC(=N)N)C(N)=O)[C@@H](C)CC)C(C)C)[C@@H](C)CC [IX, C8^α,C8^ε-KR12-NH2] (Octanoyl-K(Octanoyl)RIVQRIKDFLR-NH2)",512 µg/mL,,256 µg/mL,256 µg/mL,256 µg/mL,512 µg/mL,>512 µg/mL,>512 µg/mL,16 µg/mL,512 µg/mL
"CCCCCCCC(=O)NCCCC[C@H](NC(=O)[C@H](CCCNC(=N)N)NC(=O)[C@H](CC(C)C)NC(=O)[C@H](Cc1ccccc1)NC(=O)[C@H](CC(=O)O)NC(=O)[C@H](CCCCN)NC(=O)[C@@H](NC(=O)[C@H](CCCNC(=N)N)NC(=O)[C@H](CCC(N)=O)NC(=O)[C@@H](NC(=O)[C@@H](NC(=O)[C@H](CCCNC(=N)N)NC(=O)[C@@H](N)CCCCN)[C@@H](C)CC)C(C)C)[C@@H](C)CC)C(N)=O [VI, KR12-Lys^ε(C8)-NH2] (H-KRIVQRIKDFLRK(Octanoyl)-NH2)",64 µg/mL,64 µg/mL,32 µg/mL,32 µg/mL,32 µg/mL,16 µg/mL,32 µg/mL,32 µg/mL,4 µg/mL,64 µg/mL
"CCCCCCCC(=O)NCCCC[C@H](NC(=O)[C@H](CC(C)C)NC(=O)[C@H](Cc1ccccc1)NC(=O)[C@H](CC(=O)O)NC(=O)[C@H](CCCCN)NC(=O)[C@@H](NC(=O)[C@H](CCCNC(=N)N)NC(=O)[C@H](CCC(N)=O)NC(=O)[C@@H](NC(=O)[C@@H](NC(=O)[C@H](CCCNC(=N)N)NC(=O)[C@@H](N)CCCCN)[C@@H](C)CC)C(C)C)[C@@H](C)CC)C(N)=O [VII, [Lys^ε(C8)]^12KR12-NH2] (H-KRIVQRIKDFLK(Octanoyl)-NH2)",128 µg/mL,64 µg/mL,512 µg/mL,512 µg/mL,512 µg/mL,32 µg/mL,64 µg/mL,128 µg/mL,16 µg/mL,64 µg/mL
